# Experimental data from PubChem BioAssay (NCI).
#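 Values below derive from 48-hour exposures of cells grown in 96-well plates, with endpoints linearly interpolated between the two concentrations bracketing the appropriate inhibition level. TGI: concentration producing complete growth inhibition.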 Peptide text beside a SMILES is read from it. * marks the point of attachment. Boc = CC(C)(C)OC(=O)*; OBn = c1ccc(CO*)cc1
# Legend:
# Assay in all cases: NCI tumour cell line growth inhibition, 48 h
# MDA-MB-231 breast = tested on: MDA-MB-231 breast
# HCC-2998 colon = tested on: HCC-2998 colon
# HCT-116 colon = tested on: HCT-116 colon
# PC-3 prostate = tested on: PC-3 prostate
# SK-OV-3 ovarian = tested on: SK-OV-3 ovarian
# 786-0 renal = tested on: 786-0 renal
# T-47D breast = tested on: T-47D breast
# MCF7 breast = tested on: MCF7 breast
# HOP-62 NSCLC = tested on: HOP-62 NSCLC
# CCRF-CEM leukemia = tested on: CCRF-CEM leukemia
# NCI/ADR-RES ovarian = tested on: NCI/ADR-RES ovarian
# NCI-H226 lung = tested on: NCI-H226 lung
# M14 melanoma = tested on: M14 melanoma
# HS 578T breast = tested on: HS 578T breast
# DU-145 prostate = tested on: DU-145 prostate
SMILES,TGI (MDA-MB-231 breast) [µM],TGI (HCC-2998 colon) [µM],TGI (HCT-116 colon) [µM],TGI (PC-3 prostate) [µM],TGI (SK-OV-3 ovarian) [µM],TGI (786-0 renal) [µM],TGI (T-47D breast) [µM],TGI (MCF7 breast) [µM],TGI (HOP-62 NSCLC) [µM],TGI (CCRF-CEM leukemia) [µM],TGI (NCI/ADR-RES ovarian) [µM],TGI (NCI-H226 lung) [µM],TGI (M14 melanoma) [µM],TGI (HS 578T breast) [µM],TGI (DU-145 prostate) [µM]
CN(/N=C/c1ccccn1)C1=NCCCCN1,> 100,> 100,> 100,> 100,> 100,> 100,> 100,> 100,> 100,> 100,> 100,> 100,> 100,> 100,
O=C1C(=O)c2ccccc2C(O)=C1CN(CCCl)CCCl,,> 100,> 100,,> 100,> 100,,,> 100,> 100,,,> 100,,
O=C(O)c1ccccc1C(=O)Nn1cnnc1,> 100,> 100,> 100,> 100,> 100,> 100,,> 100,> 100,> 100,> 100,,> 100,,> 100
COC(=O)C1=C(\c2ccccc2)c2ccccc2C(=O)N(C2CCCCC2)/C=C\1,45.1,62,64,> 100,> 100,> 100,,77.4,45.3,75.5,> 100,81.5,> 100,,> 100
CC12CCC(C(=O)N3CC=CCC3)(OC1=O)C2(C)C (stereo not given),,> 100,> 100,,> 100,,,> 100,> 100,> 100,> 100,> 100,,,
COc1ccc2c(c1)N=C1CSC(c3cccc(Br)c3)N1C2 (stereo not given),50.6,19.7,28.6,38.4,48,35.1,> 100,25.2,56.2,,58,43.5,36.2,96.7,
COc1cc(NCc2ccc3nc(OC)c(OC)nc3c2)cc(OC)c1OC,> 100,> 100,> 100,> 100,> 100,> 100,> 100,> 100,> 100,> 100,> 100,> 100,> 100,,> 100
Fc1ccccc1-c1nn2c(C34CC5CC(CC(C5)C3)C4)nnc2s1,> 100,> 100,> 100,> 100,> 100,> 100,> 100,,> 100,> 100,> 100,> 100,> 100,> 100,> 100
COc1ccc2cc(/C=N\NC(=O)Nc3cccc4ccccc34)ccc2c1,65.7,> 100,30.5,> 100,,25.5,,> 100,28.7,41.8,> 100,> 100,> 100,94.6,> 100
Cn1c(NS(=O)(=O)c2ccccc2)nc2ccccc21,> 100,> 100,> 100,,> 100,> 100,> 100,> 100,,> 100,> 100,> 100,> 100,> 100,> 100
Cc1ccc(Nc2nc(N)nc3c2ncn3C2OC(CO)C(O)C2O)cc1 (stereo not given),> 100,> 100,> 100,> 100,> 100,> 100,> 100,> 100,> 100,> 100,> 100,> 100,> 100,,> 100
O=C1c2ccccc2-c2ccc(N=Nc3c(O)ccc4ccccc34)cc21,> 100,,> 100,> 100,> 100,> 100,> 100,,> 100,35,> 100,> 100,> 100,> 100,> 100
CC(C)(C)[Si](C)(C)OCC1CCC(n2cnc3c(N)ncnc32)O1 (stereo not given),> 100,,> 100,> 100,> 100,,> 100,,> 100,> 100,,> 100,> 100,> 100,> 100
COC(=O)c1ccc(N=NN(C)COc2ccc([N+](=O)[O-])cc2)cc1,,> 100,> 100,,> 100,,,> 100,> 100,> 100,> 100,> 100,,,
CC(NC(=O)CNC(=O)OC(C)(C)C)C(=O)NC(Cc1ccccc1)C(=O)OCc1ccccc1 (stereo not drawn) (Boc-Gly-Ala-Phe-OBn; configuration not given here),> 100,,> 100,> 100,> 100,> 100,> 100,> 100,,> 100,> 100,> 100,> 100,> 100,> 100
CC/C=C/C(=O)CC(O)(C(F)(F)F)C(F)(F)F,> 100,> 100,> 100,,> 100,> 100,> 100,> 100,> 100,> 100,> 100,> 100,> 100,> 100,> 100
CCOC(=O)C(NC(=O)CC(C)C)(Nc1ccc(S(=O)(=O)Nc2nc(C)cc(C)n2)cc1)C(F)(F)F (stereo not given),> 100,99.2,> 100,> 100,> 100,> 100,> 100,,> 100,> 100,> 100,> 100,> 100,> 100,> 100
COC(=O)C1[C@@H](C(=O)OC)C12C=Cc1ccccc1C=C2 (stereo not given in full),,> 100,> 100,,> 100,> 100,,,> 100,> 100,,,> 100,,
